# Results as given in ChEMBL document CHEMBL1134764, “Inhibition of RANTES/CCR1-mediated chemotaxis by cosalane and related compounds” (Bioorg Med Chem Lett, 2001).
# Target: T1, C-C chemokine receptor type 1 (Homo sapiens, UniProt P32246)
# T1 sequence (P32246 whole entry): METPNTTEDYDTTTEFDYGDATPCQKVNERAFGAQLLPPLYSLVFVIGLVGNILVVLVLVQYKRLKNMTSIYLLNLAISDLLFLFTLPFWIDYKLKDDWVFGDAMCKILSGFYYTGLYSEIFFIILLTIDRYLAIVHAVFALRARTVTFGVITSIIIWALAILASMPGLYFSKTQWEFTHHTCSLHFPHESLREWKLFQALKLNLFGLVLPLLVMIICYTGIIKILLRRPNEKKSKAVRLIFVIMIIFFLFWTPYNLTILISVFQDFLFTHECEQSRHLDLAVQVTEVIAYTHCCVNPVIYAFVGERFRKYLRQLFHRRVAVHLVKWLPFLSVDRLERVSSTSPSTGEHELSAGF
# Test: Compound was evaluated for the inhibition of RANTES-induced migration of human embryonic kidney (CCR1/HEK) cell transfectants; NA: not active; call rule not given here
# Format: functional
row,SMILES,IC50
1,CC(C)CCCC(C)[C@H]1CC[C@H]2[C@@H]3CCC4C[C@@H](CCC=C(c5cc(Cl)c(OCc6ccc(C(=O)[O-])cc6)c(C(=O)[O-])c5)c5cc(Cl)c(OCc6ccc(C(=O)[O-])cc6)c(C(=O)[O-])c5)CC[C@]4(C)[C@H]3CC[C@]12C.[Na+].[Na+].[Na+].[Na+] (stereo partly specified),Not Active

# System: not listed separately
# Test: Compound was evaluated for the inhibition of RANTES-induced migration of human monocytes; NA: not active
# Format: functional
row,IC50,SMILES
1,Not Active,CC(C)CCCC(C)[C@H]1CC[C@H]2[C@@H]3CCC4C[C@@H](CCC=C(c5cc(Cl)c(O)c(C(=O)N[C@@H](CC(=O)O)C(=O)O)c5)c5cc(Cl)c(O)c(C(=O)N[C@@H](CC(=O)O)C(=O)O)c5)CC[C@]4(C)[C@H]3CC[C@]12C (stereo partly specified)
2,Not Active,COc1c(COc2c(Cl)cc(C(=CCC[C@H]3CC[C@@]4(C)C(CC[C@H]5[C@@H]6CC[C@H](C(C)CCCC(C)C)[C@@]6(C)CC[C@@H]54)C3)c3cc(Cl)c(OCc4cccc(C(=O)O)c4OC)c(C(=O)[O-])c3)cc2C(=O)[O-])cccc1C(=O)O.[Na+].[Na+] (stereo partly specified)
3,Not Active,CC(C)CCCC(C)[C@H]1CC[C@H]2[C@@H]3CCC4C[C@@H](CCC=C(c5cc(Cl)c(OCc6ccccc6B([O-])O)c(C(=O)[O-])c5)c5cc(Cl)c(OCc6ccccc6B([O-])O)c(C(=O)[O-])c5)CC[C@]4(C)[C@H]3CC[C@]12C.[Na+].[Na+].[Na+].[Na+] (stereo partly specified)
4,Not Active,CC(C)CCCC(C)[C@H]1CC[C@H]2[C@@H]3CCC4C[C@@H](CCC=C(c5cc(Cl)c(O)c(C(=O)N[C@@H](Cc6ccccc6)C(=O)O)c5)c5cc(Cl)c(O)c(C(=O)N[C@@H](Cc6ccccc6)C(=O)O)c5)CC[C@]4(C)[C@H]3CC[C@]12C (stereo partly specified)
5,Not Active,CC(C)CCCC(C)[C@H]1CC[C@H]2[C@@H]3CCC4C[C@@H](CCC=C(c5cc(Cl)c(OCc6ccc(B([O-])O)cc6)c(C(=O)[O-])c5)c5cc(Cl)c(OCc6ccc(B([O-])O)cc6)c(C(=O)[O-])c5)CC[C@]4(C)[C@H]3CC[C@]12C.[Na+].[Na+].[Na+].[Na+] (stereo partly specified)
6,Not Active,CC(C)CCCC(C)[C@H]1CC[C@H]2[C@@H]3CCC4C[C@@H](CCC=C(c5cc(Cl)c(O)c(C(=O)N[C@@H](CCC(=O)O)C(=O)O)c5)c5cc(Cl)c(O)c(C(=O)N[C@@H](CCC(=O)O)C(=O)O)c5)CC[C@]4(C)[C@H]3CC[C@]12C (stereo partly specified)

row,SMILES,IC50
1,CC(C)CCCC(C)[C@H]1CC[C@H]2[C@@H]3CCC4C[C@@H](CCC=C(c5cc(Cl)c(OCc6ccc(C(=O)O)cc6)c(C(=O)[O-])c5)c5cc(Cl)c(OCc6ccc(C(=O)O)cc6)c(C(=O)[O-])c5)CC[C@]4(C)[C@H]3CC[C@]12C.[Na+].[Na+] (stereo partly specified),Not Active
2,CC(C)CCCC(C)[C@H]1CC[C@H]2[C@@H]3CCC4C[C@@H](CCC=C(c5cc(Cl)c(OCc6ccc(C(=O)[O-])cc6)c(C(=O)[O-])c5)c5cc(Cl)c(OCc6ccc(C(=O)[O-])cc6)c(C(=O)[O-])c5)CC[C@]4(C)[C@H]3CC[C@]12C.[Na+].[Na+].[Na+].[Na+] (stereo partly specified),Not Active

# System: not listed separately
# Test: Compound was evaluated for the inhibition of RANTES-induced migration of human monocytes
# Format: functional
row,SMILES,IC50 [µM]
1,CC(C)CCCC(C)[C@H]1CC[C@H]2[C@@H]3CCC4C[C@@H](CCC=C(c5cc(Cl)c(OCc6cccc(B(O)O)c6)c(C(=O)O)c5)c5cc(Cl)c(OCc6cccc(B(O)O)c6)c(C(=O)O)c5)CC[C@]4(C)[C@H]3CC[C@]12C (stereo partly specified),2.2
2,CC(C)CCCC(C)[C@H]1CC[C@H]2[C@@H]3CCC4C[C@@H](CCC=C(c5cc(Cl)c(OCc6ccc(-c7cccc(C(=O)O)c7)cc6)c(C(=O)O)c5)c5cc(Cl)c(OCc6ccc(-c7cccc(C(=O)O)c7)cc6)c(C(=O)O)c5)CC[C@]4(C)[C@H]3CC[C@]12C (stereo partly specified),3
3,CSCC[C@H](NC(=O)c1cc(C(=CCC[C@H]2CC[C@@]3(C)C(CC[C@H]4[C@@H]5CC[C@H](C(C)CCCC(C)C)[C@@]5(C)CC[C@@H]43)C2)c2cc(Cl)c(O)c(C(=O)N[C@@H](CCSC)C(=O)O)c2)cc(Cl)c1O)C(=O)O (stereo partly specified),0.82
4,CC(C)CCCC(C)[C@H]1CC[C@H]2[C@@H]3CCC4C[C@@H](CCC=C(c5cc(Cl)c(OCc6cccc(C(=O)O)c6)c(C(=O)O)c5)c5cc(Cl)c(OCc6cccc(C(=O)O)c6)c(C(=O)O)c5)CC[C@]4(C)[C@H]3CC[C@]12C (stereo partly specified),10
5,CC(C)CCCC(C)[C@H]1CC[C@H]2[C@@H]3CCC4C[C@@H](CCC=C(c5cc(Cl)c(OCc6ccccc6C(=O)O)c(C(=O)O)c5)c5cc(Cl)c(OCc6ccccc6C(=O)O)c(C(=O)O)c5)CC[C@]4(C)[C@H]3CC[C@]12C (stereo partly specified),3.9
6,CC(C)CCCC(C)[C@H]1CC[C@H]2[C@@H]3CCC4C[C@@H](CCC=C(c5cc(Cl)c(O)c(C(=O)O)c5)c5cc(Cl)c(O)c(C(=O)O)c5)CC[C@]4(C)[C@H]3CC[C@]12C (stereo partly specified),0.76
7,CC(C)CCCC(C)[C@H]1CC[C@H]2[C@@H]3CCC4C[C@@H](CCC=C(c5cc(Cl)c(OCc6cccc([N+](=O)[O-])c6)c(C(=O)O)c5)c5cc(Cl)c(OCc6cccc([N+](=O)[O-])c6)c(C(=O)O)c5)CC[C@]4(C)[C@H]3CC[C@]12C (stereo partly specified),3.5
